According to US8188102B2, “Amide derivative for inhibiting the growth of cancer cells” (Hanmi Holdings Co., Ltd., priority 2007, dated 2012):

Key:
[1] = system: SK-Br3 breast cancer cell line; test: Cancer cell growth inhibition, SK-Br3 (SRB); details: Homo sapiens, SK-BR-3, 72 h, read-out: ID50 (nM) SK-Br3
[2] = system: A431 skin cancer cell line; test: Cancer cell growth inhibition, A431 (SRB); details: Homo sapiens, A-431, 72 h, read-out: ID50 (nM) A431

IC50 [1] [nM] | IC50 [2] [nM] | Compound
20 | 61 | C=CC(=O)N1CCC(Oc2cc3c(NCc4cccc(Cl)c4)ncnc3cc2OC)CC1 [Example 72, 1-(4-(4-(3-chlorobenzylamino)-7-methoxyquinazolin-6-yloxy)piperidin-1-yl)pro-2-pen-1-one]
57 | 222 | C=CC(=O)N1CC[C@@H](Oc2cc3c(Nc4ccc(F)c(Cl)c4F)ncnc3cc2OC)C1 [Example 20]
395 | 41 | COc1cc2ncnc(Nc3ccc(F)c(Cl)c3F)c2cc1OC1CCN(C(=O)/C=C\C(=O)O)CC1 [Example 85, (Z)-4-(4-(4-(3-chloro-2,4-difluorophenylamino)-7-methoxyquinazolin-6-yloxy)piperidin-1-yl)-4-oxobut-2-enoic acid]
2 | 4 | C=CC(=O)N1CCC(Oc2cc3c(Nc4ccc(F)c(Cl)c4F)ncnc3cc2OCCCN2CCOCC2)CC1 [Example 118, 1-(4-(4-(3-chloro-2,4-difluorophenylamino)-7-(3-morpholinopropoxy)quinazolin-6-yloxy)piperidin-1-yl)prop-2-en-1-one]
6 | 4 | C=C(CN(C)C)C(=O)N1CCC(Oc2cc3c(Nc4ccc(Cl)c(Cl)c4F)ncnc3cc2OC)CC1 [Example 111, 1-(4-(4-(3,4-dichloro-2-fluorophenylamino)-7-methoxyquinazolin-6-yloxy)piperidin-1-yl)-2-((dimethylamino)methyl)prop-2-en-1-one]
93 | 381 | C=CC(=O)N1CC(Oc2cc3c(Nc4ccc(F)c(Cl)c4F)ncnc3cc2O)C1 [Example 115, 1-(3-(4-(3-chloro-2,4-difluorophenylamino)-7-hydroxyquinazolin-6-yloxy)azetidin-1-yl)prop-2-en-1-one]
15 | 11 | C=CC(=O)N1CCC(Oc2cc3c(Nc4cccc(C(F)(F)F)c4F)ncnc3cc2OC)CC1 [Example 65, 1-(4-(4-(2-fluoro-3-(trifluoromethyl)phenylamino)-7-methoxyquinazolin-6-yloxy)piperidin-1-yl)pro-2-pen-1-one]
1 | 9 | C=CC(=O)N1CCC(Oc2cc3c(Nc4cccc(Cl)c4C)ncnc3cc2OC)CC1 [Example 63, 1-(4-(4-(3-chloro-2-methylphenylamino)-7-methoxyquinazolin-6-yloxy)piperidin-1-yl)pro-2-pen-1-one]
19 | 6 | C=CC(=O)N1CCCC(Oc2cc3c(Nc4ccc(F)c(Cl)c4F)ncnc3cc2OC)C1 (centres unmarked) [Example 18, 1-(3-(4-(3-chloro-2,4-difluorophenylamino)-7-methoxyquinazolin-6-yloxy)piperidin-1-yl)pro-2-pen-1-one]
134 | 48 | CNC(=O)/C=C/C(=O)N1CCC(Oc2cc3c(Nc4ccc(F)c(Cl)c4F)ncnc3cc2OC)CC1 [Example 82, (E)-4-(4-(4-(3-chloro-2,4-difluorophenylamino)-7-methoxyquinazolin-6-yloxy)piperidin-1-yl)-N-methyl-4-oxobut-2-enamide]
19 | 105 | C=CC(=O)N1CCC(Oc2cc3c(Nc4ccc(Cl)c(O)c4)ncnc3cc2OC)CC1 [Example 51, 1-(4-(4-(4-chloro-3-hydroxyphenylamino)-7-methoxyquinazolin-6-yloxy)piperidin-1-yl)pro-2-pen-1-one]
0.3 | 1.1 | C=CC(=O)N1CC[C@@H](Oc2cc3c(Nc4ccc(Br)cc4F)ncnc3cc2OC)C[C@@H]1C(N)=O [Example 140, (2R,4R)-1-acryloyl-4-(4-(4-bromo-2-fluorophenylamino)-7-methoxyquinazolin-6-yloxy)piperidin-2-carboxamide]
10 | 305 | C=CC(=O)N1CCC(Oc2cc3c(Nc4cccc(SC)c4)ncnc3cc2OC)CC1 [Example 68, 1-(4-(7-methoxy-4-(3-(methylthio)phenylamino)quinazolin-6-yloxy)piperidin-1-yl)pro-2-pen-1-one]
37 | 23 | C=CC(=O)N1CCC(Oc2cc3c(Nc4ccc(C(C)C)cc4)ncnc3cc2OC)CC1 [Example 40, 1-(4-(4-(4-isopropylphenylamino)-7-methoxyquinazolin-6-yloxy)piperidin-1-yl)pro-2-pen-1-one]
128 | – | C=CC(=O)N1CC[C@@H](Oc2cc3c(Nc4ccc(F)c(Cl)c4)ncnc3cc2OC)C1 [Example 14]
274 | 44 | C=C(CO)C(=O)N1CCC(Oc2cc3c(Nc4ccc(Cl)c(Cl)c4F)ncnc3cc2OC)CC1 [Example 114, 1-(4-(4-(3,4-dichloro-2-fluorophenylamino)-7-methoxyquinazolin-6-yloxy)piperidin-1-yl)-2-(hydroxymethyl)prop-2-en-1-one]

IC50 [1] [nM] | IC50 [2] [nM] | Compound
2 | – | C=CC(=O)N1CCC(Oc2cc3c(Nc4ccc(OCc5ccccn5)c(Cl)c4)ncnc3cc2OC)CC1 [Example 55, 1-(4-(4-(3-chloro-4-(pyridin-2-ylmethoxy)phenylamino)-7-methoxyquinazolin-6-yloxy)piperidin-1-yl)pro-2-pen-1-one]
23 | 9 | COC(=O)/C=C\C(=O)N1CCC(Oc2cc3c(Nc4ccc(F)c(Cl)c4F)ncnc3cc2OC)CC1 [Example 83, (Z)-methyl 4-(4-(4-(3-chloro-2,4-difluorophenylamino)-7-methoxyquinazolin-6-yloxy)piperidin-1-yl)-4-oxobut-2-enoate]
261 | 93 | C=CC(=O)N1CCC(Oc2cc3c(Nc4ccc(Cl)c(C)c4)ncnc3cc2OC)CC1 [Example 60, 1-(4-(4-(4-chloro-3-methylphenylamino)-7-methoxyquinazolin-6-yloxy)piperidin-1-yl)pro-2-pen-1-one]
9 | 3 | C=CC(=O)N1CCC(Oc2cc3c(Nc4cccc(Cl)c4OC)ncnc3cc2OC)CC1 [Example 59, 1-(4-(4-(3-chloro-2-methoxyphenylamino)-7-methoxyquinazolin-6-yloxy)piperidin-1-yl)pro-2-pen-1-one]
35 | 44 | COc1cc2ncnc(Nc3ccc(F)c(Cl)c3F)c2cc1OC1CN(C(=O)/C=C/Cl)C1 [Example 33, (E)-3-chloro-1-(3-(4-(3-chloro-2,4-difluorophenylamino)-7-methoxyquinazolin-6-yloxy)azetidin-1-yl)pro-2-pen-1-one]
1.3 | 2.4 | C=CC(=O)N1CC[C@@H](Oc2cc3c(Nc4ccc(F)c(Cl)c4F)ncnc3cc2OC)C[C@@H]1C(=O)NCCS(C)(=O)=O [Example 138, (2R,4R)-1-acryloyl-4-(4-(3-chloro-2,4-difluorophenylamino)-7-methoxyquinazolin-6-yloxy)-N-(2-(methylsulfonyl)ethyl)piperidin-2-carboxamide]
141 | 38 | COc1cc2ncnc(Nc3ccc(F)c(Cl)c3F)c2cc1OC1CCN(C(=O)C=C(C)C)CC1 [Example 81, 1-(4-(4-(3-chloro-2,4-difluorophenylamino)-7-methoxyquinazolin-6-yloxy)piperidin-1-yl)-3-methylbut-2-en-1-one]
58 | 15 | C=CC(=O)N1CC[C@H](Oc2cc3c(Nc4ccc(Br)cc4F)ncnc3cc2OC)C1 [Example 9, 1-((3S)-3-(4-(4-bromo-2-fluorophenylamino)-7-methoxyquinazolin-6-yloxy)pyrrolidin-1-yl)pro-2-pen-1-one]
37 | 129 | C=CC(=O)N1CCC(Oc2cc3c(Nc4ccc(O)c(F)c4)ncnc3cc2OC)CC1 [Example 79, 1-(4-(4-(3-fluoro-4-hydroxyphenylamino)-7-methoxyquinazolin-6-yloxy)piperidin-1-yl)prop-2-en-1-one]
23 | 8 | COc1cc2ncnc(Nc3ccc(F)c(Cl)c3F)c2cc1O[C@H]1CCN(C(=O)/C=C/CN2CCCC2)C1 [Example 95, (E)-1-((3S)-3-(4-(3-chloro-2,4-difluorophenylamino)-7-methoxyquinazolin-6-yloxy)pyrrolidin-1-yl)-4-(pyrrolidin-1-yl)but-2-en-1-one]
316 | 85 | C/C=C/C(=O)N1CC[C@H](Oc2cc3c(Nc4ccc(F)c(Cl)c4F)ncnc3cc2OC)C1 [Example 2, (E)-1-((3S)-3-(4-(3-chloro-2,4-difluorophenylamino)-7-methoxyquinazolin-6-yloxy)pyrrolidin-1-yl)but-2-en-1-one]
123 | 85 | COc1cc2ncnc(Nc3ccc(F)c(Cl)c3F)c2cc1O[C@H]1CCN(C(=O)/C=C/CN2CCOCC2)C1 [Example 94, (E)-1-((3S)-3-(4-(3-chloro-2,4-difluorophenylamino)-7-methoxyquinazolin-6-yloxy)pyrrolidin-1-yl)-4-morpholinobut-2-en-1-one]
17 | 6 | COc1cc2ncnc(Nc3ccc(F)c(Cl)c3F)c2cc1OC1CCN(C(=O)/C=C\CN(C)C)CC1 [Example 113, (Z)-1-(4-(4-(3-chloro-2,4-difluorophenylamino)-7-methoxyquinazolin-6-yloxy)piperidin-1-yl)-4-(dimethylamino)but-2-en-1-one]
45 | – | COc1cc2ncnc(Nc3ccc(F)c(Cl)c3F)c2cc1OC1CCN(C(=O)/C=C/CN(C)C)CC1 [Example 98, (E)-1-(4-(4-(3-chloro-2,4-difluorophenylamino)-7-methoxyquinazolin-6-yloxy)piperidin-1-yl)-4-(dimethylamino)but-2-en-1-one]
17 | – | C=CC(=O)N1CC[C@H](Oc2cc3c(Nc4ccc(F)c(Cl)c4)ncnc3cc2OC)C1 [Example 13, 1-((3S)-3-(4-(3-chloro-4-fluorophenylamino)-7-methoxyquinazolin-6-yloxy)pyrrolidin-1-yl)pro-2-pen-1-one]
2 | – | C=CC(=O)N1CCC(Oc2cc3c(Nc4ccc(Cl)c(Cl)c4)ncnc3cc2OC)CC1 [Example 44, 1-(4-(4-(3,4-dichlorophenylamino)-7-methoxyquinazolin-6-yloxy)piperidin-1-yl)pro-2-pen-1-one]
